According to ChEMBL document CHEMBL4665820, “Discovery of VU6027459: A First-in-Class Selective and CNS Penetrant mGlu Positive Allosteric Modulator Tool Compound” (ACS Med Chem Lett, 2020):
The source made the active and inactive calls. The rule behind the calls is not given here.

Tests used:
[1] = molecular target: Beta-1 adrenergic receptor (Homo sapiens) (UniProt P08588); test: Displacement of [3H](-)CGP 12177 from human beta1 adrenoceptor at 10 uM after 60 mins by scintillation counting analysis relative to control
Beta-1 adrenergic receptor (Homo sapiens), sequence (P08588 whole entry, looked up): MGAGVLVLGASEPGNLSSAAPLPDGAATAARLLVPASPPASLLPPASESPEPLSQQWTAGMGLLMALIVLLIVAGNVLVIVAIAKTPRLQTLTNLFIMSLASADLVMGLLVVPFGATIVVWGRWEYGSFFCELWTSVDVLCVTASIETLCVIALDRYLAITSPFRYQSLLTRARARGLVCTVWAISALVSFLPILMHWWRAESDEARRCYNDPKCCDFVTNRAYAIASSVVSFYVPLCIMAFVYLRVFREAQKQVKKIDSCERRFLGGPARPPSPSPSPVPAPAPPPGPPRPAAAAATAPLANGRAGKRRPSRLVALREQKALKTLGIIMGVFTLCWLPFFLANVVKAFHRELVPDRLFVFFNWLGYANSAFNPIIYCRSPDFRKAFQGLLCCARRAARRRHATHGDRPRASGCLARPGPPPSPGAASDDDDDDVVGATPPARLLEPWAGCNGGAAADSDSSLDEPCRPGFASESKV

[2] = molecular target: Endothelin-1 receptor (Homo sapiens) (UniProt P25101); test: Displacement of [125I]-endothelin-1 from human recombinant ETA receptor at 10 uM after 120 mins by scintillation counting analysis relative to control
Endothelin-1 receptor (Homo sapiens), sequence (P25101 whole entry): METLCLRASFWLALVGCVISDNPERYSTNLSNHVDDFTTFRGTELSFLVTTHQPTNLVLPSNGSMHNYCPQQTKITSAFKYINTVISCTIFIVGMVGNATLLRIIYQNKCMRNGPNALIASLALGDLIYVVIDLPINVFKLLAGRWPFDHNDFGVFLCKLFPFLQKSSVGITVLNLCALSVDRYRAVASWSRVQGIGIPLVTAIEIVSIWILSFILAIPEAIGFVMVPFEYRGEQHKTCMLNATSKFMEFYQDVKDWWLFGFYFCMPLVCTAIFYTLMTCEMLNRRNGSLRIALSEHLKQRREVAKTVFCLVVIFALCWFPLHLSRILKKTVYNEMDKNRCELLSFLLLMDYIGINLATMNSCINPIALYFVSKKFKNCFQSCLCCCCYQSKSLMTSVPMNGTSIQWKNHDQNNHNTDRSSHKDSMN

Rattus norvegicus [3] = species on record: Rattus norvegicus; test: Displacement of [3H]-Muscimol from GABAA channel muscimol binding site in rat brain at 10 uM incubated for 10 mins by scintillation counting analysis relative to control; assay type: tissue-based
[4] = molecular target: Cysteinyl leukotriene receptor 1 (Homo sapiens) (UniProt Q9Y271); test: Displacement of [3H]-LTD4 from human recombinant CysLT1 Leukotriene receptor at 10 uM incubated for 60 mins by scintillation counting analysis relative to control
Cysteinyl leukotriene receptor 1 (Homo sapiens), sequence (Q9Y271 whole entry): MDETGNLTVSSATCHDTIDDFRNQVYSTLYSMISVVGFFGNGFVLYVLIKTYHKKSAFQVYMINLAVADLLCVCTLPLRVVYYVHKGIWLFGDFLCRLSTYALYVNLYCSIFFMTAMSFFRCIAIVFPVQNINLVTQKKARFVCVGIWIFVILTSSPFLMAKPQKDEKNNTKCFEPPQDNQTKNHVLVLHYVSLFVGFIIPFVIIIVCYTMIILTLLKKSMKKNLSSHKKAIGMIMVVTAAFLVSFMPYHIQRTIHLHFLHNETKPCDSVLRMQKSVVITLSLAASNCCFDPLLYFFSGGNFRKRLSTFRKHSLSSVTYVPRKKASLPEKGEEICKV

[5] = molecular target: Prostaglandin E2 receptor EP4 subtype (Homo sapiens) (UniProt P35408); test: Displacement of [3H]-Prostaglandin E2 from human recombinant prostanoid receptor EP4 at 10 uM incubated for 120 mins by scintillation counting analysis relative to control
Prostaglandin E2 receptor EP4 subtype (Homo sapiens), sequence (P35408 whole entry): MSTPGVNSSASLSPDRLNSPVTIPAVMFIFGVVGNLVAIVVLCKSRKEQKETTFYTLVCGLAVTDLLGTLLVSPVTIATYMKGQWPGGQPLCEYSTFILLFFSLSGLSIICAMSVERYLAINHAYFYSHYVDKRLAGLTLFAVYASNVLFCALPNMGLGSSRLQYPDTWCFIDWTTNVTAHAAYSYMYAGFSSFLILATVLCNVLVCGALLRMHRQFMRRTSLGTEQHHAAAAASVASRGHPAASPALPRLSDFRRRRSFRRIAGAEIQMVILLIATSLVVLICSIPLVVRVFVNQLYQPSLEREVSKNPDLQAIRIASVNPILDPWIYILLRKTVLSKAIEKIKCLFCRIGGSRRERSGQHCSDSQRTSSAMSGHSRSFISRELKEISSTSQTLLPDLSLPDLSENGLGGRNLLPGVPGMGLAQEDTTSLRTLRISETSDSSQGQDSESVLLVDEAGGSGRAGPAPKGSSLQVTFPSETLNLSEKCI

[6] = molecular target: 5-hydroxytryptamine receptor 1A (Homo sapiens) (UniProt P08908); test: Displacement of [3H]8-OH-DPAT from recombinant human 5-HT1A receptor at 10 uM after 60 mins by scintillation counting analysis relative to control
5-hydroxytryptamine receptor 1A (Homo sapiens), sequence (P08908 whole entry): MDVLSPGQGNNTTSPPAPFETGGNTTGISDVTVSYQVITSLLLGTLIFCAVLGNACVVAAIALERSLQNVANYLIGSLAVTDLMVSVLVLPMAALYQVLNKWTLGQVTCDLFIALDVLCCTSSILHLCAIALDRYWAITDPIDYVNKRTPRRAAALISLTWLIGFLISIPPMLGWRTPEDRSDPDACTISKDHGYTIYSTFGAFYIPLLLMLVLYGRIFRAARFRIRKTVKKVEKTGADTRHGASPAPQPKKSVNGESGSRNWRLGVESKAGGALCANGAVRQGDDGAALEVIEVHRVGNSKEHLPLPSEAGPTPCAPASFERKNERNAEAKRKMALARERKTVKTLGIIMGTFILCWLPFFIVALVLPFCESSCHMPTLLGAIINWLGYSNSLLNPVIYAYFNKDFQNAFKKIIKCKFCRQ

Rattus norvegicus [7] = species on record: Rattus norvegicus; test: Displacement of [3H]-Batrachotoxinin from rat sodium channel site 2 at 10 uM incubated for 60 mins by scintillation counting analysis relative to control
[8] = molecular target: Substance-P receptor (Homo sapiens) (UniProt P25103); test: Displacement of [125I]-Substance P LYS3 from human recombinant tachykinin NK1 receptor at 10 uM incubated for 30 mins by scintillation counting analysis relative to control
Substance-P receptor (Homo sapiens), sequence (P25103 whole entry): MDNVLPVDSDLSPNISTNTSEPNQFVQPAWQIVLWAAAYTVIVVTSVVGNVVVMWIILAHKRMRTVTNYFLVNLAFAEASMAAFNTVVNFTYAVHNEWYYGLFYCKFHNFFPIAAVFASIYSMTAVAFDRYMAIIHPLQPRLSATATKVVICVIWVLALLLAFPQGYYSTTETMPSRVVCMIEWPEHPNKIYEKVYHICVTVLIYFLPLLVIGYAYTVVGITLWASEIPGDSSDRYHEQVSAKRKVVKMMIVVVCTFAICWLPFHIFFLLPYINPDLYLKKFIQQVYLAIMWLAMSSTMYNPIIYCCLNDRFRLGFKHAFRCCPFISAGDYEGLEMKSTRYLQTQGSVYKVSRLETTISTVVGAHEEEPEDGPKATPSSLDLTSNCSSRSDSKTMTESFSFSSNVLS

Rattus norvegicus [9] = species on record: Rattus norvegicus; test: Displacement of [125I]-Triiodothyronine from thyroid hormone receptors in rat at 10 uM incubated for 180 mins by scintillation counting analysis relative to control
[10] = molecular target: Sodium-dependent dopamine transporter (Homo sapiens, UniProt Q01959); test: Displacement of […] from recombinant human Dopamine transporter after 120 mins by scintillation counting analysis; assay type: ADME
Sodium-dependent dopamine transporter, sequence (Q01959 whole entry): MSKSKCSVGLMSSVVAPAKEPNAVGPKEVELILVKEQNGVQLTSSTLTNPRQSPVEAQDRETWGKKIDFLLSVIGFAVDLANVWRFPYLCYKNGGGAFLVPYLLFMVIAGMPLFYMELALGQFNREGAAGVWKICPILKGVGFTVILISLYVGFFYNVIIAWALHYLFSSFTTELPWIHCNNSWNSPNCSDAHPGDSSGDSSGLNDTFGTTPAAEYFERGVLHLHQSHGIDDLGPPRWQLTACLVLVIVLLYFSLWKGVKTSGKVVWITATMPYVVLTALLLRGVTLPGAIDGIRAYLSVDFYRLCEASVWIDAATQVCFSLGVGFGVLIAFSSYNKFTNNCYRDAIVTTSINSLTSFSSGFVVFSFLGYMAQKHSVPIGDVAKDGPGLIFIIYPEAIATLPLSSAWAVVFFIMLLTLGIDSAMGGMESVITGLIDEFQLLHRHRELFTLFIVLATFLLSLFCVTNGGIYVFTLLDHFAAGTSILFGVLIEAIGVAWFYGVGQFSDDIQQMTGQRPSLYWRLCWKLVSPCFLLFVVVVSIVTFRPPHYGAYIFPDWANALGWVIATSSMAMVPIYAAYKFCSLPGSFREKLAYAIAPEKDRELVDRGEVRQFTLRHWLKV

[11] = Hepatic intrinsic clearance in rat liver microsomes at 1 uM preincubated for 5 mins followed by NADPH addition and measured up to 45 mins by LC-MS/MS analysis; assay type: ADME, Microsome; conditions: read-out: CLH
[12] = Hepatic intrinsic clearance in mouse liver microsomes at 1 uM preincubated for 5 mins followed by NADPH addition and measured up to 45 mins by LC-MS/MS analysis; assay type: ADME, Microsome; conditions: read-out: CLH
[13] = molecular target: Metabotropic glutamate receptor 7 (Homo sapiens) (UniProt Q14831); test: Agonist activity at human mGlu7 receptor; conditions: tested as the 2H-labelled form
Metabotropic glutamate receptor 7 (Homo sapiens), sequence (Q14831 whole entry): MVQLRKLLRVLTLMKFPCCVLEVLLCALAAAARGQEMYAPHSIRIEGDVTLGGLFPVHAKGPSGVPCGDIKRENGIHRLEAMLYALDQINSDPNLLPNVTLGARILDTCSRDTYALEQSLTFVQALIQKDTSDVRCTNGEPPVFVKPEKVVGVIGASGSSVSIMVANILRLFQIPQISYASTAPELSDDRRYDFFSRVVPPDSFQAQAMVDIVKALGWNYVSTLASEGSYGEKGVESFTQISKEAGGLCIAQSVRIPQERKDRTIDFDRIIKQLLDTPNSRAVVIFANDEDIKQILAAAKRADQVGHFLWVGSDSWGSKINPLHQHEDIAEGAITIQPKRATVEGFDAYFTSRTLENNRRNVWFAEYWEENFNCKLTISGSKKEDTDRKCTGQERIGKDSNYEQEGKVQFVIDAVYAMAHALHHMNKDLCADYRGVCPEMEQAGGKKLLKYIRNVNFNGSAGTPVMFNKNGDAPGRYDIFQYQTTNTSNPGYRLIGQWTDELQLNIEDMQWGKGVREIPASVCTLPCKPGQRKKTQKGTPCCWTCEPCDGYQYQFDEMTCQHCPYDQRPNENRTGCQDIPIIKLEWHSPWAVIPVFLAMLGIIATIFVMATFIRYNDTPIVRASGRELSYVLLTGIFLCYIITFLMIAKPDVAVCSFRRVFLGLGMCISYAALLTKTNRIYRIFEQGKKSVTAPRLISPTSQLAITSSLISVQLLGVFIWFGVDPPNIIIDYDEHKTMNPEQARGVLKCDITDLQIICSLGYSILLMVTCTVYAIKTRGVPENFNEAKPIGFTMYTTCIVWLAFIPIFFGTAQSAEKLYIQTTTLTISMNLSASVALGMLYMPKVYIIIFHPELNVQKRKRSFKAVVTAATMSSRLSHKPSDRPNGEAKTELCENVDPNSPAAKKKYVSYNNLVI

[14] = molecular target: Metabotropic glutamate receptor 7 (Homo sapiens) (UniProt Q14831); test: Positive allosteric modulation of human mGlu7 receptor; conditions: filed as positive allosteric modulator; tested as the 2H-labelled form
[15] = molecular target: Metabotropic glutamate receptor 7 (Rattus norvegicus, UniProt P35400); test: Positive allosteric modulation of rat mGlu7 expressed in HEK293 cells co- expressing GIRK assessed as potentiation of L-AP4-induced thallium flux incubated for 140 sec by FluoZin2-AM dye based fluorescence analysis; assay type: cell-based
Metabotropic glutamate receptor 7, sequence (P35400 whole entry): as the sequence (Q14831 whole entry) above, with R5G, A27V, N454H, S488T, A520S, D578N counted along it

[16] = Plasma clearance in Sprague-Dawley rat at 0.2 to 0.25 mg/kg, iv measured upto 24 hrs by LC/MS/MS analysis; assay type: ADME, organism-based; conditions: dose 0.2-0.25 mg/kg
[17] = Half-life in Sprague-Dawley rat at 0.2 to 0.25 mg/kg, iv measured upto 24 hrs by LC/MS/MS analysis; assay type: ADME, organism-based; conditions: in vivo, dose 0.2-0.25 mg/kg
[18] = Volume of distribution at steady state in Sprague-Dawley rat at 0.2 to 0.25 mg/kg, iv measured upto 24 hrs by LC/MS/MS analysis; assay type: ADME, organism-based; conditions: in vivo, dose 0.2-0.25 mg/kg, read-out: Vdss
hERG (KCNH2) = hERG (KCNH2) (Homo sapiens, UniProt Q12809); test: Displacement of [3H]-Astemizole from human recombinant full length ERG channel at 10 uM incubated for 60 mins by scintillation counting analysis relative to control; conditions: probe [3H]-astemizole
[19] = molecular target: dopamine transporter (DAT) (Homo sapiens, UniProt Q01959); test: Displacement of […] from recombinant human Dopamine transporter at 10 uM after 120 mins by scintillation counting analysis relative to control; assay type: ADME
dopamine transporter (DAT), sequence (Q01959 whole entry): as the sequence (Q01959 whole entry) above

For `COc1cc(F)cc2c(N3CCN(c4ccccc4F)CC3)c(C#N)cnc12`, the inhibition ([1]; tested as the 2H-labelled form) was under 50%, the inhibition ([2]; tested as the 2H-labelled form) was under 50% and the inhibition (Rattus norvegicus [3]; tested as the 2H-labelled form) was under 50%. The inhibition ([4]; tested as the 2H-labelled form) was under 50%, the inhibition ([5]; tested as the 2H-labelled form) was under 50% and the inhibition ([6]; tested as the 2H-labelled form) was under 50%. The inhibition (Rattus norvegicus [7]; tested as the 2H-labelled form) was under 50%, the inhibition ([8]; tested as the 2H-labelled form) was under 50% and the inhibition (Rattus norvegicus [9]; tested as the 2H-labelled form) was under 50%. It also gave an IC50 [10] of over 10 µM, a CLint scaled at 1 µM [11] of 3.36 L/h/kg and a CLint scaled at 1 µM [12] of 5.22 L/h/kg. The Activity [13] was “inactive” and the Activity [14] was “Active”.
With `COc1cccc2c(N3CCN(c4ccccc4F)CC3)c(C#N)cnc12` the EC50 [15] was 0.879 µM, the clearance [16] was 2.85 L/h/kg and the half-life [17] was 45 min. The Vd [18] was 4.1 L/kg, the inhibition [1] was under 50% and the inhibition [2] was under 50%. For the same compound, the inhibition (Rattus norvegicus [3]) was under 50%, the inhibition [4] was under 50% and the inhibition at 1 h, 10 µM (hERG (KCNH2)) was under 50%. For the same compound, the inhibition [5] was under 50%, the inhibition [6] was under 50% and the inhibition (Rattus norvegicus [7]) was under 50%. The inhibition [8] was under 50%, the inhibition (Rattus norvegicus [9]) was under 50% and the inhibition at 2 h, 10 µM [19] was 85%. It also gave a Ki [10] of 0.43 µM.
